According to article PMC12090182, “Repurposing of the RIPK1-Selective Benzo[1,4]oxazepin-4-one Scaffold for the Development of a Type III LIMK1/2 Inhibitor” (ACS Chemical Biology, 2025):
Read-outs that look alike come from different tables or passages of the source.

Tested on: U2OS cells
Format: cell-based
Details: U2OS
Outline: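 HEK293T and U2OS cells (DMEM) and MRC-9 fibroblasts (EMEM) exposed to compounds at 1 and 10 μM. Live-cell confocal imaging of cell shape and fluorescence before and at 12, 24 and 48 h. Normalized to 0.1% DMSO; biological duplicates with SEM.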

[1] = 1 µM, 0 h, biological replicate 1
[2] = 1 µM, 0 h, biological replicate 2
[3] = 1 µM, 12 h, biological replicate 1
[4] = 1 µM, 12 h, biological replicate 2
[5] = 1 µM, 24 h, biological replicate 1
[6] = 1 µM, 24 h, biological replicate 2
[7] = 1 µM, 48 h, biological replicate 1
[8] = 1 µM, 48 h, biological replicate 2
[9] = 10 µM, 0 h, biological replicate 1
[10] = 10 µM, 0 h, biological replicate 2
[11] = 10 µM, 12 h, biological replicate 1
[12] = 10 µM, 12 h, biological replicate 2
[13] = 10 µM, 24 h, biological replicate 1
[14] = 10 µM, 24 h, biological replicate 2
[15] = 10 µM, 48 h, biological replicate 1
[16] = 10 µM, 48 h, biological replicate 2

## CC(C)C(=O)Nc1ncc(-c2cc(C(F)F)nn2-c2c(Cl)cccc2Cl)s1 [LIMKi3]
[1]
  Cell count normalized to cells treated with DMSO control: 1.067
  Cell count per well: 222
  Population Fragmented Nuclei (%): 50.47%
  Population Healthy Nuclei (%): 44.34%
  Population Pyknosed Nuclei (%): 5.19%
  Population apoptotic cell (%): 81.82%
  Population cell that influence microtubule strucutre (%): 3.19%
  Population with increased mitochondrial mass (%): 4.26%
  Population with membrane disruption (%): 8.51%
[2]
  Cell count normalized to cells treated with DMSO control: 1.097
  Cell count per well: 94
  Population Fragmented Nuclei (%): 27.47%
  Population Healthy Nuclei (%): 63.74%
  Population Pyknosed Nuclei (%): 8.79%
  Population apoptotic cell (%): 100.00%
  Population cell that influence microtubule strucutre (%): 5.17%
  Population with increased mitochondrial mass (%): 1.72%
  Population with membrane disruption (%): 5.17%
[3]
  Cell count normalized to cells treated with DMSO control: 0.9868
  Cell count per well: 261
  Population Fragmented Nuclei (%): 35.71%
  Population Healthy Nuclei (%): 57.94%
  Population Pyknosed Nuclei (%): 6.35%
  Population apoptotic cell (%): 81.25%
  Population cell that influence microtubule strucutre (%): 3.42%
  Population with increased mitochondrial mass (%): 2.05%
  Population with membrane disruption (%): 6.85%
[4]
  Cell count normalized to cells treated with DMSO control: 1.091
  Cell count per well: 129
  Population Fragmented Nuclei (%): 18.25%
  Population Healthy Nuclei (%): 76.98%
  Population Pyknosed Nuclei (%): 4.76%
  Population apoptotic cell (%): 100.00%
  Population cell that influence microtubule strucutre (%): 4.12%
  Population with increased mitochondrial mass (%): 4.12%
  Population with membrane disruption (%): 5.15%
[5]
  Cell count normalized to cells treated with DMSO control: 0.9303
  Cell count per well: 290
  Population Fragmented Nuclei (%): 30.77%
  Population Healthy Nuclei (%): 62.24%
  Population Pyknosed Nuclei (%): 6.99%
  Population apoptotic cell (%): 80.00%
  Population cell that influence microtubule strucutre (%): 2.25%
  Population with increased mitochondrial mass (%): 3.37%
  Population with membrane disruption (%): 5.06%
[6]
  Cell count normalized to cells treated with DMSO control: 1.125
  Cell count per well: 160
  Population Fragmented Nuclei (%): 21.52%
  Population Healthy Nuclei (%): 67.72%
  Population Pyknosed Nuclei (%): 10.76%
  Population apoptotic cell (%): 70.59%
  Population cell that influence microtubule strucutre (%): 1.87%
  Population with increased mitochondrial mass (%): 2.80%
  Population with membrane disruption (%): 4.67%
[7]
  Cell count normalized to cells treated with DMSO control: 0.8403
  Cell count per well: 374
  Population Fragmented Nuclei (%): 26.78%
  Population Healthy Nuclei (%): 61.48%
  Population Pyknosed Nuclei (%): 11.75%
  Population apoptotic cell (%): 86.05%
  Population cell that influence microtubule strucutre (%): 4.44%
  Population with increased mitochondrial mass (%): 2.67%
  Population with membrane disruption (%): 6.22%
[8]
  Cell count normalized to cells treated with DMSO control: 0.9779
  Cell count per well: 202
  Population Fragmented Nuclei (%): 17.50%
  Population Healthy Nuclei (%): 70.50%
  Population Pyknosed Nuclei (%): 12.00%
  Population apoptotic cell (%): 87.50%
  Population cell that influence microtubule strucutre (%): 4.26%
  Population with increased mitochondrial mass (%): 2.13%
  Population with membrane disruption (%): 6.38%
[9]
  Cell count normalized to cells treated with DMSO control: 1.081
  Cell count per well: 225
  Population Fragmented Nuclei (%): 43.12%
  Population Healthy Nuclei (%): 50.46%
  Population Pyknosed Nuclei (%): 6.42%
  Population apoptotic cell (%): 78.57%
  Population cell that influence microtubule strucutre (%): 4.55%
  Population with increased mitochondrial mass (%): 3.64%
  Population with membrane disruption (%): 7.27%
[10]
  Cell count normalized to cells treated with DMSO control: 1.132
  Cell count per well: 97
  Population Fragmented Nuclei (%): 17.53%
  Population Healthy Nuclei (%): 71.13%
  Population Pyknosed Nuclei (%): 11.34%
  Population apoptotic cell (%): 90.91%
  Population cell that influence microtubule strucutre (%): 5.80%
  Population with increased mitochondrial mass (%): 10.14%
  Population with membrane disruption (%): 5.80%
[11]
  Cell count normalized to cells treated with DMSO control: 0.8507
  Cell count per well: 225
  Population Fragmented Nuclei (%): 35.24%
  Population Healthy Nuclei (%): 45.24%
  Population Pyknosed Nuclei (%): 19.52%
  Population apoptotic cell (%): 63.41%
  Population cell that influence microtubule strucutre (%): 84.21%
  Population with increased mitochondrial mass (%): 51.58%
  Population with membrane disruption (%): 77.89%
[12]
  Cell count normalized to cells treated with DMSO control: 0.9469
  Cell count per well: 112
  Population Fragmented Nuclei (%): 12.15%
  Population Healthy Nuclei (%): 68.22%
  Population Pyknosed Nuclei (%): 19.63%
  Population apoptotic cell (%): 57.14%
  Population cell that influence microtubule strucutre (%): 86.30%
  Population with increased mitochondrial mass (%): 68.49%
  Population with membrane disruption (%): 67.12%
[13]
  Cell count normalized to cells treated with DMSO control: 0.7058
  Cell count per well: 220
  Population Fragmented Nuclei (%): 35.92%
  Population Healthy Nuclei (%): 37.86%
  Population Pyknosed Nuclei (%): 26.21%
  Population apoptotic cell (%): 55.56%
  Population cell that influence microtubule strucutre (%): 78.21%
  Population with increased mitochondrial mass (%): 65.38%
  Population with membrane disruption (%): 65.38%
[14]
  Cell count normalized to cells treated with DMSO control: 0.7383
  Cell count per well: 105
  Population Fragmented Nuclei (%): 11.11%
  Population Healthy Nuclei (%): 58.59%
  Population Pyknosed Nuclei (%): 30.30%
  Population apoptotic cell (%): 60.00%
  Population cell that influence microtubule strucutre (%): 75.86%
  Population with increased mitochondrial mass (%): 65.52%
  Population with membrane disruption (%): 53.45%
[15]
  Cell count normalized to cells treated with DMSO control: 0.528
  Cell count per well: 235
  Population Fragmented Nuclei (%): 37.96%
  Population Healthy Nuclei (%): 28.70%
  Population Pyknosed Nuclei (%): 33.33%
  Population apoptotic cell (%): 68.06%
  Population cell that influence microtubule strucutre (%): 77.42%
  Population with increased mitochondrial mass (%): 54.84%
  Population with membrane disruption (%): 80.65%
[16]
  Cell count normalized to cells treated with DMSO control: 0.6342
  Cell count per well: 131
  Population Fragmented Nuclei (%): 20.83%
  Population Healthy Nuclei (%): 49.17%
  Population Pyknosed Nuclei (%): 30.00%
  Population apoptotic cell (%): 77.78%
  Population cell that influence microtubule strucutre (%): 77.97%
  Population with increased mitochondrial mass (%): 54.24%
  Population with membrane disruption (%): 67.80%
